Assay results reported in US11382894B2, “Pharmaceutical compositions for use in the treatment of cardiovascular calcification” (INSERM (INSTITUT NATIONAL DE LA SANTE ET DE LA RECHERCHE …, priority 2017, dated 2022).

What was measured:
Rat aortic rings = assay: Calcium content of rat aortic rings cultured ex vivo in procalcifying conditions (O-Cresolphthalein colorimetric assay); type: cell-based; conditions: Pi 3.8 mM, 7 days; for Effect on calcium content of rat aortas (in words): procalcifying conditions; for Aortic calcium content: Pi alone = 100%
Experimental: Materials and methods: Rat aortic rings were cultured in procalcifying conditions using inorganic phosphate (Pi: 3.8 mM) for 7 days. […] Rat aortic calcium content was determined using a calcium colorimetric assay with O-Cresolphthalein.
(§1) Materials and methods: Rat aortic rings were cultured in procalcifying conditions using inorganic phosphate (Pi: 3.8 mM) for 7 days. N-acetyl-S-farnesyl-L-cysteine (AFC)—sEH phosphatase domain inhibitor—was added at concentrations, ranging from 0.1 to 10 μM (n=4-21 per group). Rat aortic calcium content was determined using a calcium colorimetric assay with O-Cresolphthalein.
Materials and methods: Rat aortic rings were cultured in procalcifying conditions using inorganic phosphate (Pi: 3.8 mM) for 7 days in absence and in presence of ebselen at a concentration of 1 and 10 μM (n=6-8 per group).

[1] = tested on: Human valvular interstitial cells (VICs); assay: Calcium content of human valvular interstitial cells cultured in procalcifying conditions (O-Cresolphthalein colorimetric assay); type: cell-based; conditions: Pi 3 mM; for VICs calcium content: mean±SEM; for Effect on calcium content of valvular interstitial cells (in words): procalcifying conditions
Experimental: as §1, with “Human valvular interstitial cells (VICs)” for “Rat aortic rings”, “3” for “3.8”, “14” for “7”, “5” for “10”, “(n=5-6” for “(n=4-21”, “VICs” for “Rat”
Materials and methods: Human valvular interstitial cells (VICs) were cultured in procalcifying conditions using inorganic phosphate (Pi: 3 mM) for 10 days. Ebselen—sEH phosphatase domain inhibitor—was added at the concentrations of 0.1 and 1 μM (n=4 per group). VICs aortic calcium content was determined using a calcium colorimetric assay with O-Cresolphthalein.

[2] = rat aortic rings, compound 1 μM
[3] = rat aortic rings, compound 10 μM

| Structure (SMILES) | Effect on calcium content of rat aortas (in words) (Rat aortic rings) | Alizarin Red and VonKossa histochemical staining (Rat aortic rings; rat aortic rings) | Aortic calcium content (Rat aortic rings; rat aortic rings, compound 0.1 μM) | Aortic calcium content (Rat aortic rings; [2]) | Aortic calcium content (Rat aortic rings; [3]) | Alizarin Red staining ([1]; human VICs, 14 days) | VICs calcium content ([1]; human VICs, 14 days, compound 0.1 μM, Pi alone 90.3±4.6 μg) | VICs calcium content ([1]; human VICs, 14 days, compound 1 μM, Pi alone 90.3±4.6 μg) | VICs calcium content ([1]; human VICs, 14 days, compound 5 μM, Pi alone 90.3±4.6 μg) | Effect on calcium content of valvular interstitial cells (in words) ([1]; 14 days) | VICs calcium content ([1]; human VICs, 10 days, compound 0.1 μM, Pi alone = 100%) | VICs calcium content ([1]; human VICs, 10 days, compound 1 μM, Pi alone = 100%) | Effect on calcium content of valvular interstitial cells (in words) ([1]; 10 days) |
| --- | --- | --- | --- | --- | --- | --- | --- | --- | --- | --- | --- | --- | --- |
| CC(=O)N[C@@H](CSC/C=C(\C)CC/C=C(\C)CCC=C(C)C)C(=O)O [AFC, N-acetyl-S-farnesyl-L-cysteine] | dose-dependently reduces | confirmed these results | 83.6±9.1% | 74.2±2.9% | 54.5±12% | confirmed these results | 76.7 ± 5.7 µg | 51.1 ± 2.9 µg | 45.8 ± 2 µg | dose-dependently reduces |  |  |  |
| O=c1c2ccccc2[se]n1-c1ccccc1 [ebselen] | dose-dependently reduces |  |  | 77±8% | 62±7% |  |  |  |  |  | 88.8±11% | 67.6±7.2% | dose-dependently reduces |
